Source: PMC6121244, “Differences in Functional Expression of Connexin43 and NaV1.5 by Pan- and Class-Selective Histone Deacetylase Inhibition in Heart” (International Journal of Molecular Sciences, 2018)
Read-outs that look alike come from different tables or passages of the source.

Key:
[1] = system: total HDAC activity in cultured neonatal mouse ventricular cardiomyocytes; test: Fluor de Lys total HDAC activity assay in cultured ventricular cardiomyocytes; assay type: cell-based; conditions: NMVMs, 18–24 h treatment; for C1, decay constant of first exponential component of HDAC inhibition curve / C2, decay constant of second exponential component of HDAC inhibition curve: double exponential fit
Description: Neonatal mice born from an inbred C57BL/6 mouse colony were anesthetized using isoflurane and the hearts were excised in accordance with procedures approved by the SUNY Upstate Medical University Institutional Animal Care and Use Committee (IACUC) # 263 on 15 March 2017. The excised hearts were separated into atria and ventricles and exposed to collagenase solution for digestion. The dissociated cells were pre-plated for 30 min to reduce fibroblast content by differential adhesion and the supernatant was collected, centrifuged and re-suspended in 1 mL/heart of M199/10% FBS culture media. The primary cells were plated into 96-well plates for HDAC activity assays, 35 mm culture dishes for patch clamp electrophysiology, or 60 mm culture dishes and homogenized after 3 days for Western blots.
Aliquots of 2 × 10^5 ventricular myocytes per well (96-well plate) were grown in 200 μL of 200 μM bromodeoxyuridine (BrDU)/M199, exchanged daily. Cell densities were counted with a hemocytometer and seeded into the wells. Wells were incubated with 2000 pmoles of the acetylated Fluor-de-Lys® substrate for 8 h during HDAC inhibition. […]

[2] = system: ventricular gap junction conductance (gj), Cx43-mediated; test: Gap junction conductance (gj), dual whole cell patch clamp on NMVM cell pairs; assay type: cell-based, mouse
Description: Final DMSO levels were <0.005% (vol/vol).
Gap junction currents (Ij) were recorded in the dual whole cell configuration according to previously published methods. Upon establishing a dual whole cell patch, Ij was recorded using a 30 s, 20 mV trans-junctional voltage protocol. All dual whole cell current recordings were low-pass filtered at 500 Hz and digitized at 2 KHz using pClamp 8.2 and graphical analysis performed using Origin 7.5 or 8.6 software as previously described.

[3] = system: cardiac sodium current (INa) in NMVMs, primarily NaV1.5; test: Cardiac sodium current (INa) density and Vm-dependent gNa activation/inactivation, whole cell patch clamp; assay type: cell-based, mouse; conditions: 18–24 h
Source text: Since both the activation and inactivation of INa are dependent on the membrane potential (Vm), we calculated the normalized Na^+ conductance (gNa) by dividing the average peak INa by the difference between Vm and the reversal potential (Erev) for INa, and then divided the gNa value for each Vm by the maximum gNa value for each experiment. The gNa–Vm curves were fit with a Boltzmann function gNa= gNamax+ (gNa− gNamax)/[1+exp((Vm− V1/2)/dVm)] using Origin 8.6. […] Final DMSO levels were <0.005% (vol/vol).

late INa in NMVMs = test: Late INa, whole cell patch clamp; assay type: cell-based, mouse
Source text: Increases in late or persistent INa have been linked to cardiac arrhythmias and heart failure. […] . Subsequently, we modified a voltage clamp ramp protocol designed to generate late INa I–V relationships. […] .

[4] = system: Cx43 protein expression in NMVMs; test: Western blot of Cx43 protein level; assay type: cell-based, mouse; conditions: 24 h
[5] = system: NaV1.5 protein expression in NMVMs; test: Western blot of NaV1.5 protein level; assay type: cell-based, mouse; conditions: 24 h
HDAC1 [6] = system: HDAC1
[7] = system: HeLa nuclear extract HDAC activity; set-up: method as in PMID 17455259; conditions: incomplete inhibition; cited from earlier work
HDAC8 [8] = system: HDAC8; set-up: method as in PMID 17868033; conditions: >100,000 = incomplete inhibition at 100 μM; cited from earlier work
HDAC4 = system: HDAC4; set-up: method as in PMID 17868033; conditions: >100,000 = incomplete inhibition at 100 μM; cited from earlier work
HDAC9 = system: HDAC9; set-up: method as in PMID 17868033; conditions: >100,000 = incomplete inhibition at 100 μM; cited from earlier work
HDAC8 [9] = system: HDAC8; set-up: method as in PMID 17455259; conditions: cited from earlier work
HDAC1 [10] = conditions: read-out: IC50 HDAC1, cited from earlier work
[11] = system: acetyl-α-tubulin and acetyl-histone 3; test: Western blot of acetylation markers; conditions: 1 μM MS-275, 24 h
IK,to and IK,ss in NMVMs = test: Transient and steady state outward K+ currents, whole cell patch clamp
[12] = system: total HDAC activity in cultured neonatal mouse ventricular cardiomyocytes; conditions: NMVMs, cited from earlier work; for C1, decay constant of first exponential component of HDAC inhibition curve / C2, decay constant of second exponential component of HDAC inhibition curve: double exponential fit
[13] = system: cardiac sodium current (INa) in NMVMs, primarily NaV1.5; set-up: method as in PMID 27638876; conditions: previous experiments ref 13; cited from earlier work
HDAC6 = conditions: cited from earlier work
HDAC3 = system: HDAC3; set-up: method as in PMID 17868033; conditions: >100,000 = incomplete inhibition at 100 μM; cited from earlier work
HDAC1 [14] = target: HDAC1; set-up: method as in PMID 20139990; conditions: cited from earlier work
HDAC2 = target: HDAC2; set-up: method as in PMID 20139990; conditions: cited from earlier work
HDAC5 = target: HDAC5; set-up: method as in PMID 20139990; conditions: cited from earlier work
HDAC7 [15] = target: HDAC7; set-up: method as in PMID 20139990; conditions: cited from earlier work
HDAC1 [16] = system: HDAC1; set-up: method as in PMID 17868033; conditions: >100,000 = incomplete inhibition at 100 μM; cited from earlier work
HDAC7 [17] = system: HDAC7; set-up: method as in PMID 17868033; conditions: >100,000 = incomplete inhibition at 100 μM; cited from earlier work
[18] = read-out: IC50(2), low affinity site, total HDAC activity, IC50 = 0.693·C2
[19] = adjusted values from published data ref 14
[20] = 25, 100, 500, 2500 nM panobinostat, p < 0.05
[21] = adjusted values from published data ref 13

Nc1ccccc1NC(=O)c1ccc(CNC(=O)OCc2cccnc2)cc1 [Entinostat, entinostat]
C1, decay constant of first exponential component of HDAC inhibition curve [1]: 629 ± 166 nM
C2, decay constant of second exponential component of HDAC inhibition curve [1]: 12,926 ± 3655 nM
IC50 ([1]; read-out: IC50(1), high affinity site, total HDAC activity, IC50 = 0.693·C1): 0.436 ± 0.115 µM
IC50 [1, 18]: 8.96 ± 2.53 µM
effect on ventricular gj ([2]; 5 μM entinostat, 18–24 h): significant reduction in gj
effect on peak Na+ current density ([3]; 1 μM entinostat): no significant effect
effect on late INa current density (late INa in NMVMs; 1 μM entinostat 18–24 h, Vm ramp): no increase in late INa
Cx43 protein level ([4]; 1 μM entinostat): no significant changes
NaV1.5 protein level ([5]; 1 μM entinostat): no significant changes
preferential inhibition of HDAC1 over other HDACs (HDAC1 [6]): 10–100 fold
IC50 [7]: 11 µM
Ac-H3 and Ac-α-tubulin signals [11]: only increased the Ac-H3 signal
transient outward and steady state K+ currents (IK,to and IK,ss in NMVMs; 1 μM MS275, 24 h): no si gni ficant chang es

C/C=C1\NC(=O)[C@H]2CSSCC/C=C/[C@H](CC(=O)N[C@H](C(C)C)C(=O)N2)OC(=O)[C@H](C(C)C)NC1=O [FK228, romidepsin]
C1, decay constant of first exponential component of HDAC inhibition curve [12, 19]: 7.9 ± 0.9 nM
C2, decay constant of second exponential component of HDAC inhibition curve [12, 19]: 2524 ± 678 nM
IC50 ([12]; adjusted values from published data ref 14, read-out: IC50(1), high affinity site, total HDAC activity): 0.0055 ± 0.0006 µM
IC50 ([12]; adjusted values from published data ref 14, read-out: IC50(2), low affinity site, total HDAC activity): 1.75 ± 0.47 µM
positive shift in half activation voltage (V½) [13]: +2 to +8 mV
shift in Vm-dependent gNa inactivation curve [13]: no shift

CCCC(=O)[O-].[Na+] [NaB, sodium butyrate]
increase in gj ([2]; 5 mM NaB alone): 26%
effect on gj ([2]; increasing concentrations of NaB): non-significantly increased gj in a concentration-dependent manner
activity against the class IIb HDAC6 (HDAC6): no activity

Cc1[nH]c2ccccc2c1CCNCc1ccc(/C=C/C(=O)NO)cc1 [Panobinostat, panobinostat]
C1, decay constant of first exponential component of HDAC inhibition curve [1]: 57.4 ± 22.2 nM
C2, decay constant of second exponential component of HDAC inhibition curve [1]: 2959 ± 838 nM
IC50 ([1]; IC50 = 0.693·C1, listed as LBH589, read-out: IC50(1), high affinity site, total HDAC activity): 0.0398 ± 0.0154 µM
IC50 ([1]; IC50 = 0.693·C1, read-out: IC50(1), high affinity site, total HDAC activity): ~0.04 µM
IC50 [1, 18]: ~2 µM
IC50 ([1]; read-out: IC50(2), low affinity site, total HDAC activity, IC50 = 0.693·C2, listed as LBH589): 2.05 ± 0.581 µM
amplitude of exponential fit of decline in gj ([2]; 18–24 h, exponential fit): 48.5
effect on ventricular gj ([2]; 100, 500 or 1000 nM panobinostat, 18–24 h): significant dose-dependent decrease
effect on peak cardiac Na+ current density ([3]; 100 or 500 nM panobinostat): decreased the cardiac sodium current density in a dose-dependent manner
effect on late INa (late INa in NMVMs; 100 or 500 nM panobinostat overnight, average current 100 to 150 msec): no difference in late INa
Cx43 protein level [4, 20]: concentration-dependent decrease
NaV1.5 protein level [5, 20]: concentration-dependent decrease
transient outward and steady state K+ currents (IK,to and IK,ss in NMVMs; 100 nM, 24 h): No signifi cant changes

CC(/C=C/C(=O)NO)=C\[C@@H](C)C(=O)c1ccc(N(C)C)cc1 [TSA, Trichostatin A]
C1, decay constant of first exponential component of HDAC inhibition curve [12, 21]: 10.6 ± 1.3 nM
C2, decay constant of second exponential component of HDAC inhibition curve [12, 21]: 258 ± 76 nM
IC50 ([12]; adjusted values from published data ref 13, read-out: IC50(1), high affinity site, total HDAC activity): 0.0073 ± 0.0009 µM
IC50 ([12]; adjusted values from published data ref 13, read-out: IC50(2), low affinity site, total HDAC activity): 0.179 ± 0.053 µM
positive shift in half activation voltage (V½) [13]: +2 to +8 mV
shift in Vm-dependent gNa inactivation curve [13]: no shift

O=C(CCCCCCC(=O)Nc1ccc([C@H]2O[C@@H](CSc3nc(-c4ccccc4)c(-c4ccccc4)o3)C[C@@H](c3ccc(CO)cc3)O2)cc1)NO [Tubacin, tubacin]
increase in gj ([2]; 10 μM tubacin alone): 9%
effect on gj ([2]; 20 μM tubacin, highest tested dose): slight decrease
effect on gj ([2]; increasing concentrations of tubacin): non-significant increase and then decrease in gj with increasing concentration
Ki (HDAC1 [14]): 0.028 ± 0.004 µM
Ki (HDAC2): 0.042 ± 0.0035 µM
Ki (HDAC5): 1.5 ± 0.25 µM
Ki (HDAC7 [15]): 8.5 ± 1.5 µM

O=C(CCCCCCC(=O)Nc1ccccc1)NO [VOR, suberoylanilide hydroxamic acid]
C1, decay constant of first exponential component of HDAC inhibition curve [12, 21]: 140 ± 30 nM
C2, decay constant of second exponential component of HDAC inhibition curve [12, 21]: 1086 ± 312 nM

CCCC(CCC)C(=O)O [VPA, valproic acid]
IC50 (HDAC1 [16]): 1580 µM
IC50 (HDAC3): 3070 µM
IC50 (HDAC8 [8]): 7440 µM
IC50 (HDAC7 [17]): > 100 µM
IC50 (HDAC9): > 100 µM
